Measured values as given in ChEMBL document CHEMBL4257490, “Development of a peptide-based bifunctional chelator conjugated to a cytotoxic drug for the treatment of melanotic melanoma” (Medchemcomm, 2018).
Calls of active or inactive are those of the source. The rule behind the calls is not given here. Residues, ends and D or L forms follow the SMILES beside them. *: point of attachment. X1 = O=c1nc(N*)ccn1[C@@H]1O[C@H](CO)[C@@H](O)C1(F)F

Tests used:
[1] = Hemolytic activity in rat erythrocytes up to 50 uM after 1 hr relative to control; type: ADME, cell-based, Erythrocyte; conditions: read-out: Activity
[2] = Hemolytic activity in rat erythrocytes at 100 uM after 1 hr relative to control; type: ADME, cell-based, Erythrocyte; conditions: read-out: Activity
[3] = Drug degradation in histidine solution using 99mTc(CO)3-labeled compound after 24 hrs by TLC method; type: physicochemical; conditions: read-out: Drug degradation
[4] = n-Octanol-phosphate buffer partition co-efficient, log P of 99mTc(CO)3-labeled compound at 2 to 3 KBq after 1 min by gamma scintillation counting method; type: physicochemical
[5] = Drug uptake in mouse B16F10 cells using 99mTc(CO)3-labeled compound at 15 to 20 MBq/ml after 30 mins by gamma scintillation counting method relative to total added activity; type: ADME, cell-based; conditions: b16-f10, 0.5 h
[6] = Drug uptake in heart of Balb/c mouse allografted with mouse B16F10 cells using 99mTc(CO)3-labeled compound at 10 to 12 MBq/kg, iv measured at 2 hrs; type: ADME, organism-based; conditions: in vivo
[7] = Drug uptake in lung of Balb/c mouse allografted with mouse B16F10 cells using 99mTc(CO)3-labeled compound at 10 to 12 MBq/kg, iv measured at 2 hrs; type: ADME, organism-based; conditions: in vivo
[8] = Drug uptake in spleen of Balb/c mouse allografted with mouse B16F10 cells using 99mTc(CO)3-labeled compound at 10 to 12 MBq/kg, iv measured at 2 hrs; type: ADME, organism-based; conditions: in vivo
[9] = Drug uptake in muscle of Balb/c mouse allografted with mouse B16F10 cells using 99mTc(CO)3-labeled compound at 10 to 12 MBq/kg, iv measured at 2 hrs; type: ADME, organism-based, Muscle tissue; conditions: in vivo
[10] = Drug uptake in intestine of Balb/c mouse allografted with mouse B16F10 cells using 99mTc(CO)3-labeled compound at 10 to 12 MBq/kg, iv measured at 2 hrs; type: ADME, organism-based; conditions: in vivo
[11] = Drug uptake in stomach of Balb/c mouse allografted with mouse B16F10 cells using 99mTc(CO)3-labeled compound at 10 to 12 MBq/kg, iv measured at 2 hrs; type: ADME, organism-based; conditions: in vivo
[12] = Drug uptake in urine of Balb/c mouse allografted with mouse B16F10 cells using 99mTc(CO)3-labeled compound at 10 to 12 MBq/kg, iv measured at 2 hrs; type: ADME, organism-based; conditions: in vivo
[13] = Ratio of drug level in tumor to blood of Balb/c mouse allografted with mouse B16F10 cells using 99mTc(CO)3-labeled compound at 10 to 12 MBq/kg, iv measured at 2 hrs; type: ADME, organism-based, Tumor/tissue
[14] = Ratio of drug level in tumor to muscle of Balb/c mouse allografted with mouse B16F10 cells using 99mTc(CO)3-labeled compound at 10 to 12 MBq/kg, iv measured at 2 hrs; type: ADME, organism-based, Tumor/tissue; conditions: in vivo
[15] = Drug uptake in heart of Balb/c mouse allografted with mouse B16F10 cells using 99mTc(CO)3-labeled compound at 10 to 12 MBq/kg, iv measured at 4 hrs; type: ADME, organism-based; conditions: in vivo
[16] = Drug uptake in blood of Balb/c mouse allografted with mouse B16F10 cells using 99mTc(CO)3-labeled compound at 10 to 12 MBq/kg, iv measured at 4 hrs; type: ADME, organism-based; conditions: in vivo
[17] = Drug uptake in liver of Balb/c mouse allografted with mouse B16F10 cells using 99mTc(CO)3-labeled compound at 10 to 12 MBq/kg, iv measured at 4 hrs; type: ADME, organism-based; conditions: in vivo
[18] = Drug uptake in lung of Balb/c mouse allografted with mouse B16F10 cells using 99mTc(CO)3-labeled compound at 10 to 12 MBq/kg, iv measured at 4 hrs; type: ADME, organism-based; conditions: in vivo
[19] = Drug uptake in spleen of Balb/c mouse allografted with mouse B16F10 cells using 99mTc(CO)3-labeled compound at 10 to 12 MBq/kg, iv measured at 4 hrs; type: ADME, organism-based; conditions: in vivo
[20] = Drug uptake in kidney of Balb/c mouse allografted with mouse B16F10 cells using 99mTc(CO)3-labeled compound at 10 to 12 MBq/kg, iv measured at 4 hrs; type: ADME, organism-based; conditions: in vivo
[21] = Drug uptake in intestine of Balb/c mouse allografted with mouse B16F10 cells using 99mTc(CO)3-labeled compound at 10 to 12 MBq/kg, iv measured at 4 hrs; type: ADME, organism-based; conditions: in vivo
[22] = Drug uptake in stomach of Balb/c mouse allografted with mouse B16F10 cells using 99mTc(CO)3-labeled compound at 10 to 12 MBq/kg, iv measured at 4 hrs; type: ADME, organism-based; conditions: in vivo
[23] = Ratio of drug level in tumor to muscle of Balb/c mouse allografted with mouse B16F10 cells using 99mTc(CO)3-labeled compound at 10 to 12 MBq/kg, iv measured at 4 hrs; type: ADME, organism-based, Tumor/tissue; conditions: in vivo
[24] = Drug uptake in tumor of Balb/c mouse allografted with mouse B16F10 cells using 99mTc(CO)3-labeled compound at 4 to 8 MBq, iv measured at 4 hrs by scintigraphic imaging method; type: ADME, organism-based, Neoplasm; conditions: in vivo
[25] = Drug uptake in kidney of Balb/c mouse allografted with mouse B16F10 cells using 99mTc(CO)3-labeled compound at 4 to 8 MBq, iv measured at 4 hrs by scintigraphic imaging method; type: ADME, organism-based; conditions: in vivo
[26] = Drug uptake in liver of Balb/c mouse allografted with mouse B16F10 cells using 99mTc(CO)3-labeled compound at 4 to 8 MBq, iv measured at 4 hrs by scintigraphic imaging method; type: ADME, organism-based; conditions: in vivo
[27] = Drug uptake in gastrointestinal tract of Balb/c mouse allografted with mouse B16F10 cells using 99mTc(CO)3-labeled compound at 4 to 8 MBq, iv measured at 4 hrs by scintigraphic imaging method; type: ADME, organism-based; conditions: in vivo
[28] = Drug uptake in urinary bladder of Balb/c mouse allografted with mouse B16F10 cells using 99mTc(CO)3-labeled compound at 4 to 8 MBq, iv measured at 4 hrs by scintigraphic imaging method; type: ADME, organism-based; conditions: in vivo
[29] = test system: B16-F10; test: Induction of apoptosis in mouse B16F10 cells assessed as necrotic cells at IC50 after 72 hrs by annexin V-FITC/propidium iodide staining-based flow cytometric method relative to control; type: functional
[30] = test system: B16-F10; test: Induction of apoptosis in mouse B16F10 cells assessed as nuclear fragmentation at IC50 after 72 hrs by DAPI staining-based fluorescence microscopic method; type: functional, cell-based
[31] = test system: B16-F10; test: Antitumor activity against mouse B16F10 cells allografted in Balb/c mouse assessed as tumor growth inhibition at 25 mg/kg, iv administered thrice weekly for 21 days starting on day 10 post tumor implantation relative to control; type: functional; conditions: read-out: TGI
[32] = test system: Mus musculus; test: Toxicity in mouse B16F10 cells allografted Balb/c mouse assessed as effect on body weight at 25 mg/kg, iv administered thrice weekly for 21 days starting on day 10 post tumor implantation (reference value: 30.52 +/- 2.9 g); type: organism-based; conditions: in vivo, 504 h
[33] = test system: B16-F10; test: Antitumor activity against mouse B16F10 cells allografted in Balb/c mouse assessed as decrease in formation of new blood vessels in tumor at 25 mg/kg, iv administered thrice weekly for 21 days starting on day 10 post tumor implantation by haematoxylin and eosin staining-based method; type: functional, organism-based
[34] = Drug uptake in mouse B16F10 cells using 99mTc(CO)3-labeled compound at 15 to 20 MBq/ml after 240 mins by gamma scintillation counting method; type: ADME, cell-based; conditions: b16-f10, 4 h

With `NCCCC[C@H](NC(=O)CNC(=O)[C@H](Cc1cnc[nH]1)NC(=O)[C@H](CCCCN)NC(=O)[C@H](Cc1ccc(O)cc1)NC(=O)[C@@H](N)Cc1cnc[nH]1)C(=O)N[C@@H](CC(=O)Nc1ccn([C@@H]2O[C@H](CO)[C@@H](O)C2(F)F)c(=O)n1)C(N)=O` (H-HYKHGKD(X1)-NH2) as the compound, how does the hemolysis at 1 h [1] read?
Its hemolysis at 1 h is 5 to 6%.

What about the hemolysis at 1 h, 100 µM [2] of the same compound?
The hemolysis at 1 h, 100 µM was 7 to 9%.

What about the degraded at 24 h [3] of the same compound?
Its degraded at 24 h is 5%.

What about the logP at 1 min [4] of the same compound?
The logP at 1 min was -0.629.

What about the Drug uptake [5] of the same compound?
Its Drug uptake is 4.99%.

What about the Drug uptake [6] of the same compound?
Its Drug uptake is 0.06 % ID/g.

And the Drug uptake [7]?
Its Drug uptake is 0.4 % ID/g.

What about the Drug uptake [8] of the same compound?
Its Drug uptake is 0.69 % ID/g.

What about the Drug uptake [9] of the same compound?
The Drug uptake was 0.17 % ID/g.

And the Drug uptake [10]?
Its Drug uptake is 8.51 % ID/g.

And the Drug uptake [11]?
The Drug uptake was 0.25 % ID/g.

And the Drug uptake [12]?
The Drug uptake was 41.21 %ID/ml.

And the Kp at 2 h [13]?
Its Kp at 2 h is 0.95.

And the Ratio [14]?
Its Ratio is 10.64.

What about the Drug uptake [15] of the same compound?
Its Drug uptake is 0.04 % ID/g.

And the Drug uptake [16]?
The Drug uptake was 1.58 %ID/ml.

And the Drug uptake [17]?
Its Drug uptake is 15.62 % ID/g.

What about the Drug uptake [18] of the same compound?
Its Drug uptake is 0.25 % ID/g.

What about the Drug uptake [19] of the same compound?
The Drug uptake was 0.45 % ID/g.

And the Drug uptake [20]?
Its Drug uptake is 16.25 % ID/g.

And the Drug uptake [21]?
The Drug uptake was 6.28 % ID/g.

What about the Drug uptake [22] of the same compound?
Its Drug uptake is 0.17 % ID/g.

And the Ratio [23]?
Its Ratio is 18.73.

And the Drug uptake [24]?
The Drug uptake was “Active”.

What about the Drug uptake [25] of the same compound?
The Drug uptake was “Active”.

What about the Drug uptake [26] of the same compound?
Its Drug uptake is “Active”.

What about the Drug uptake [27] of the same compound?
Its Drug uptake is “Active”.

And the Drug uptake [28]?
The Drug uptake was “Active”.

What about the Activity [29] of the same compound?
Its Activity is 12 - 14%.

What about the Activity [30] of the same compound?
Its Activity is “Active”.

And the inhibition in vivo at 25 mg/kg [31]?
The inhibition in vivo at 25 mg/kg was 62%.

And the Activity [32]?
Its Activity is 25.15 g.

And the Activity [33]?
Its Activity is “Active”.

What about the Drug uptake [34] of the same compound?
The Drug uptake was 80%.
